Measurements taken from patent publication US12319655B2, “RAF kinase inhibitors and methods of use thereof” (Deciphera Pharmaceuticals, LLC, priority 2021, dated 2025).

Assays:
[1] = target: B-Raf kinase (SEQ. ID NO: 2) (Homo sapiens (Human), UniProt P15056); experiment: Biochemical Assay for B-Raf (1); settings: Table J, assay version (1); read-out: BRAF (1) IC50
Procedure, shortened: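 IC50 derived by four-parameter sigmoidal fit of percent inhibition, normalised to uninhibited and reference-inhibitor controls, using reaction rates over 4–5 h. Coupled spectrophotometric readout (NADH loss at 340 nm, 6 h, 30° C.); 1 mM ATP, 30.1 nM MEK, 0.13 nM B-Raf, pH 7.5 Tris buffer, 1% DMSO.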

[2] = target: C-Raf kinase (SEQ. ID NO: 3) (Homo sapiens (Human), UniProt P04049, Y340D/Y341D); experiment: Biochemical Assay for C-Raf (1); settings: Table J, assay version (1); read-out: CRAF (1) IC50
Chain of C-Raf kinase (SEQ. ID NO: 3) (P04049 307-648 Y340D/Y341D): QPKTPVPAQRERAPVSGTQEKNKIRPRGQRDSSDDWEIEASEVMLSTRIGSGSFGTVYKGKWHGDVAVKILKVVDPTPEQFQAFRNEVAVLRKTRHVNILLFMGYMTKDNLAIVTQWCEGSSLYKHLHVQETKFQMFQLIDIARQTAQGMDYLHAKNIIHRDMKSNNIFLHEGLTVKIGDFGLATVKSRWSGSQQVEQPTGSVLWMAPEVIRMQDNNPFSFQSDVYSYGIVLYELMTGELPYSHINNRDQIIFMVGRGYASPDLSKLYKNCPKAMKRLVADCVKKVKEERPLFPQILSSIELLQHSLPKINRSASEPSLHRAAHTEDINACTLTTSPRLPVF
Procedure, shortened: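 IC50 values come from a four-parameter fit of percent inhibition, using the reaction rate over 4–5 h of a 6 h continuous 340 nm read at 30 °C. The enzyme mix was C-Raf 0.43 nM, MEK substrate 30.1 nM and ATP 1 mM, in a PK/LDH NADH-coupled format in Tris pH 7.5 with 1% DMSO.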

[3] = tested on: H2405 cells; experiment: H2405 Cell Proliferation Assay (1); format: cell-based; settings: Homo sapiens, NCI-H2405
Procedure, shortened: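 Viability was read by resazurin reduction (ex 540 nm, em 600 nm; 5-6 h with 40 μL of 440 μM stock) after 67-72 h compound exposure at 37 °C.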

[4] = target: B-Raf (V600E) (SEQ. ID NO: 4) kinase (Homo sapiens (Human), UniProt P15056, V600E); experiment: Biochemical Assay for B-Raf (V600E) (1); settings: Table J, BRAF V600E, assay version (1); read-out: BRAF VE (1) IC50
Chain of B-Raf (V600E) (SEQ. ID NO: 4) kinase (P15056 416-766 V600E): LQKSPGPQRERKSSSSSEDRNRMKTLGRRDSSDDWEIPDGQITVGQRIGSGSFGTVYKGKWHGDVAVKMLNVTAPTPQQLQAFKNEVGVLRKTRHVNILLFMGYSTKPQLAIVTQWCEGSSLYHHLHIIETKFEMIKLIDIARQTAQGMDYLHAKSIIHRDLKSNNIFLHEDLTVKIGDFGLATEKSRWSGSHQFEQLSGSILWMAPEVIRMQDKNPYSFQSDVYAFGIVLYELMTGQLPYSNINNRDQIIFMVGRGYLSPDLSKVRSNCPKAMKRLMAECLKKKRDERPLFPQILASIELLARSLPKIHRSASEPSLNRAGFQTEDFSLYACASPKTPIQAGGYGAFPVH
Procedure, shortened: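 Serially diluted compounds tested against 0.03 nM enzyme with 30.1 nM MEK substrate and 1 mM ATP (Tris pH 7.5, 15 mM MgCl2), ATP use coupled to NADH loss via PK/LDH. A340 monitored continuously 6 h, 30 °C; IC50 fitted (four-parameter) from the 3–4 h rate versus no-compound and known-inhibitor controls.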

Chain of B-Raf kinase (SEQ. ID NO: 2) (P15056 416-766): as the sequence (P15056 416-766 V600E) above, with E185V counted along it

| IC50 [1] | IC50 [2] | IC50 [3] | IC50 [4] | Compound |
| --- | --- | --- | --- | --- |
| ≤ 100 nM | ≤ 100 nM | 100 to 500 nM | ≤ 100 nM | Cc1ncc(NC(=O)c2ccnc(C(C)(C)C#N)c2)cc1-c1cccc(-c2ccnc(C(N)=O)c2)c1 [Example 301] |
| 100 to 500 nM | 100 to 500 nM | 500 to 1000 nM | 100 to 500 nM | CNC(=O)c1cc(-c2cnnc(-c3cc(NC(=O)c4ccnc(C(F)(F)F)c4)ccc3C)c2)ccn1 [Example 364] |
| 100 to 500 nM | 100 to 500 nM | ≤ 100 nM | ≤ 100 nM | CNC(=O)c1cc(-c2cc(-c3cc(NC(=O)c4ccnc(C(F)(F)F)c4)ccc3C)cc(C3CC3)n2)ccn1 [Example 27] |
| ≤ 100 nM | ≤ 100 nM | 100 to 500 nM | ≤ 100 nM | Cc1ncc(NC(=O)c2ccnc(C3CC3)c2)cc1-c1cccc(-c2cc(NC(=O)C3CC3)ncn2)c1 [Example 291] |
| 1000 to 10000 nM | 500 to 1000 nM | 1000 to 10000 nM | 100 to 500 nM | Cc1ccc(NC(=O)c2ccnc(C(C)(C)C#N)c2)cc1-c1cc(-c2ccnc(C(=O)NC3CC3)c2)cnn1 [Example 372] |
| ≤ 100 nM | ≤ 100 nM | 100 to 500 nM | ≤ 100 nM | Cc1nc(-c2ccnc(NC(=O)C3CC3)c2)cc(-c2cc(NC(=O)c3ccnc(C4(C#N)CC4)c3)cnc2C)n1 [Example 286] |
| ≤ 100 nM | ≤ 100 nM | ≤ 100 nM | ≤ 100 nM | COC(C)(C)c1cc(C(=O)Nc2ccc(C)c(-c3cc(-c4ccnc(NC(=O)C5CC5)c4)cnn3)c2)ccn1 [Example 319] |
| ≤ 100 nM | ≤ 100 nM | ≤ 100 nM | ≤ 100 nM | COC(=O)Nc1cc(-c2nccc(-c3cc(NC(=O)c4ccnc(C(C)(C)C#N)c4)c(F)cc3C)n2)ccn1 [Example 303] |
| ≤ 100 nM | ≤ 100 nM | 100 to 500 nM | ≤ 100 nM | Cc1ncc(NC(=O)c2ccnc(C3CC3)c2)cc1-c1nccc(-c2ccnc(NC(=O)C3CC3)c2)n1 [Example 295] |
| ≤ 100 nM | ≤ 100 nM | 1000 to 10000 nM | ≤ 100 nM | Cc1ccc(NC(=O)C2CN(C)CCO2)cc1-c1cccc(-c2cc(NC(=O)C3CC3)ncn2)c1 (stereo not shown) [Example 346] |
| 100 to 500 nM | ≤ 100 nM | 500 to 1000 nM | 100 to 500 nM | COC(=O)Nc1cc(-c2cnnc(-c3cc(NC(=O)c4ccnc(C(C)(C)F)c4)cnc3C)c2)ccn1 [Example 361] |
| ≤ 100 nM | ≤ 100 nM | 100 to 500 nM | ≤ 100 nM | Cc1ncc(NC(=O)c2cnn(C(C)(C)C)c2)cc1-c1ccnc(-c2ccnc(NC(=O)C3CC3)c2)n1 [Example 283] |
| ≤ 100 nM | ≤ 100 nM | 1000 to 10000 nM | ≤ 100 nM | COC(=O)Nc1cc(-c2cccc(-c3cc(NC(=O)c4ccnc(C5CC5)c4)cnc3C)c2)ccn1 [Example 288] |
| ≤ 100 nM | ≤ 100 nM | 500 to 1000 nM | ≤ 100 nM | Cc1ccc(NC(=O)C2CCOC(C(C)C)C2)cc1-c1cc(-c2ccnc(NC(=O)C3CC3)c2)cnn1 (stereo not shown) [Example 370] |
| 1000 to 10000 nM | 1000 to 10000 nM | 1000 to 10000 nM | 1000 to 10000 nM | COC(=O)Nc1cc(-c2cnnc(-c3cc(NC(=O)CN4CCCC4)cnc3C)c2)ccn1 [Example 359] |
| ≤ 100 nM | ≤ 100 nM | 100 to 500 nM | ≤ 100 nM | COC(=O)Nc1cc(-c2cnnc(-c3cc(NC(=O)c4cccc(C(C)(C)C#N)c4)ccc3C)c2)ccn1 [Example 311] |
| 1000 to 10000 nM | 1000 to 10000 nM | 1000 to 10000 nM | 1000 to 10000 nM | CNC(=O)c1cc(-c2cnnc(-c3cc(NC(=O)c4ccc(Cl)c(OC)c4)cnc3C)c2)ccn1 [Example 322] |
| 500 to 1000 nM | ≤ 100 nM | 500 to 1000 nM | ≤ 100 nM | CNC(=O)c1cc(-c2cnnc(-c3cc(NC(=O)c4ccc(F)c(C(F)(F)F)c4)ccc3C)c2)ccn1 [Example 329] |
| ≤ 100 nM | ≤ 100 nM | 1000 to 10000 nM | 100 to 500 nM | Cc1ccc(NC(=O)c2cn(C(C)C)nn2)cc1-c1cc(-c2ccnc(NC(=O)C3CC3)c2)cnn1 [Example 320] |
| 100 to 500 nM | 100 to 500 nM | 100 to 500 nM | ≤ 100 nM | CNC(=O)c1cc(-c2cc(-c3cc(NC(=O)c4ccnc(C(C)(C)F)c4)ccc3C)cnc2C)ccn1 [Example 371] |

Further lines, the compound ahead of its results:

| Compound | IC50 [1] | IC50 [2] | IC50 [3] | IC50 [4] |
| --- | --- | --- | --- | --- |
| Cc1ccc(NC(=O)c2cnn(C(C)(C)C)c2)cc1-c1cc(-c2ccnc(NC(=O)C3CC3)c2)cnn1 [Example 321] | ≤ 100 nM | ≤ 100 nM | 100 to 500 nM | ≤ 100 nM |
| COC(=O)Nc1cc(-c2cc(-c3cc(NC(=O)c4ccnc(C(C)(C)C#N)c4)c(F)cc3C)ccn2)ccn1 [Example 308] | ≤ 100 nM | ≤ 100 nM | ≤ 100 nM | ≤ 100 nM |
| Cc1ncc(NC(=O)c2cn(C(C)C)nn2)cc1-c1ccnc(-c2ccnc(NC(=O)C3CC3)c2)n1 [Example 281] | ≤ 100 nM | ≤ 100 nM | 100 to 500 nM | ≤ 100 nM |
| CNC(=O)c1cc(-c2cnnc(-c3cc(NC(=O)c4ccnc(C(F)(F)F)c4)cnc3C)c2)ccn1 [Example 318] | 500 to 1000 nM | 100 to 500 nM | 1000 to 10000 nM | 1000 to 10000 nM |
| Cc1ncc(NC(=O)c2cnnc(C3CC3)c2)cc1-c1nccc(-c2ccnc(NC(=O)C3CC3)c2)n1 [Example 294] | ≤ 100 nM | ≤ 100 nM | 100 to 500 nM | ≤ 100 nM |
| Cc1cc(F)c(NC(=O)c2ccnc(C(F)F)c2)cc1-c1ccnc(-c2ccnc(NC(=O)C3CC3)c2)c1 [Example 307] | ≤ 100 nM | ≤ 100 nM | ≤ 100 nM | ≤ 100 nM |
| COC(=O)Nc1cc(-c2cnnc(-c3cc(NC(=O)c4ccnc(C(C)(C)C#N)c4)cnc3C)c2)ccn1 [Example 306] | 100 to 500 nM | 100 to 500 nM | 1000 to 10000 nM | 100 to 500 nM |
| Cc1ncc(NC(=O)c2ccnc(C(C)(C)F)c2)cc1-c1cc(-c2ccnc(NC(=O)C3CC3)c2)cnn1 [Example 310] | ≤ 100 nM | ≤ 100 nM | 100 to 500 nM | ≤ 100 nM |
| Cc1ccc(NC(=O)c2cnnc(C3CC3)c2)cc1-c1cccc(-c2cc(NC(=O)C3CC3)ncn2)c1 [Example 284] | ≤ 100 nM | ≤ 100 nM | 500 to 1000 nM | ≤ 100 nM |
| COC(=O)Nc1nccc(-c2cccc(-c3cc(NC(=O)c4ccnc(C(C)(C)C#N)c4)cnc3C)c2)n1 [Example 290] | 500 to 1000 nM | 100 to 500 nM | 1000 to 10000 nM | ≤ 100 nM |
| CNC(=O)c1cc(-c2cnnc(-c3cc(NC(=O)CCC(C)(C)C#N)cnc3C)c2)ccn1 [Example 333] | 1000 to 10000 nM | 1000 to 10000 nM | 1000 to 10000 nM | 1000 to 10000 nM |
| COC(=O)Nc1cc(-c2cnnc(-c3cc(NC(=O)COCC4CC4)ccc3C)c2)ccn1 [Example 360] | 500 to 1000 nM | 100 to 500 nM | 1000 to 10000 nM | 1000 to 10000 nM |
| Cc1cc(F)c(NC(=O)c2ccnc(C(C)(C)C#N)c2)cc1-c1cc(-c2ccnc(NC(=O)C3CC3)c2)cnn1 [Example 298] | ≤ 100 nM | ≤ 100 nM | 100 to 500 nM | ≤ 100 nM |
| Cc1ncc(NC(=O)c2cn(C(C)C)nn2)cc1-c1nccc(-c2ccnc(NC(=O)C3CC3)c2)n1 [Example 285] | ≤ 100 nM | ≤ 100 nM | 1000 to 10000 nM | ≤ 100 nM |
| CNC(=O)c1cc(-c2cc(-c3cc(NC(=O)COCC4CC4)ccc3C)ccn2)ccn1 [Example 358] | ≤ 100 nM | ≤ 100 nM | 1000 to 10000 nM | 500 to 1000 nM |
| Cc1ccc(NC(=O)c2ccnc(S(C)(=O)=O)c2)cc1-c1cc(-c2ccnc(NC(=O)C3CC3)c2)cnn1 [Example 332] | ≤ 100 nM | ≤ 100 nM | 1000 to 10000 nM | ≤ 100 nM |
| Cc1ccc(NC(=O)c2ccnc(C(C)(C)F)c2)cc1-c1cc(-c2ccnc(NC(=O)C3CC3)c2)cnn1 [Example 315] | ≤ 100 nM | ≤ 100 nM | ≤ 100 nM | ≤ 100 nM |
| COC(=O)Nc1cc(-c2cnnc(-c3cc(NC(=O)CC4CCCC4)cnc3C)c2)ccn1 [Example 368] | 1000 to 10000 nM | 1000 to 10000 nM | 1000 to 10000 nM | 1000 to 10000 nM |
| CNC(=O)c1cc(-c2cnnc(-c3cc(NC(=O)c4ccnc(C(F)F)c4)ccc3C)c2)ccn1 [Example 327] | 100 to 500 nM | ≤ 100 nM | 1000 to 10000 nM | 500 to 1000 nM |
| CNC(=O)c1cc(-c2cnnc(-c3cc(NC(=O)c4ccnc(C(C)(C)C#N)c4)cnc3C)c2)ccn1 [Example 316] | 500 to 1000 nM | 100 to 500 nM | 1000 to 10000 nM | 100 to 500 nM |
